# Laboratory results reported in ChEMBL document CHEMBL4334461, “Taicrypnacids A and B, a Pair of C37 Heterodimeric Diterpenoid Stereoisomers from Taiwania cryptomerioides” (J Nat Prod, 2019).
# Active and inactive are the calls of the source. The calls are words filed in the database; no cut-off is given here.
# Tests used:
# MCF7 [1] = test: Induction of mitochondrial morphological changes in human MCF7 cells assessed as dilation of mitochondria at 5 to 20 uM measured after 24 hrs by Mito-tracker and Hoechst 33342 staining based confocal microscopy; assay type: functional, cell-based
# MCF-10A = test: Cytotoxicity against human MCF10A cells at 3.125 to 50 uM measured after 24 hrs by MTT assay; assay type: cell-based
# MCF7 [2] = test: Induction of endoplasmic reticular stress in human MCF7 cells assessed as upregulation of GRP78 by Western blot analysis; assay type: functional, cell-based
# HCT-116 = test: Cytotoxicity against human HCT116 cells measured after 24 hrs by MTT assay; assay type: functional, cell-based; details: HCT-116, 24 h
# U2OS = test: Cytotoxicity against human U2OS cells measured after 24 hrs by MTT assay; assay type: functional, cell-based
# MCF7 [3] = test: Induction of endoplasmic reticular stress in human MCF7 cells assessed as upregulation of CHOP by Western blot analysis; assay type: functional, cell-based
# MCF7 [4] = test: Induction of ROS-mediated autophagy in human MCF7 cells assessed as increase in autophagosome numbers; assay type: functional, cell-based
# MCF7 [5] = test: Cytotoxicity against human MCF7 cells measured after 24 hrs by MTT assay; assay type: functional, cell-based; details: MCF7, 24 h
# MCF7 [6] = test: Induction of apoptosis in human MCF7 cells assessed as activation of cleaved PARP; assay type: functional, cell-based
# MCF7 [7] = test: Induction of ROS-mediated autophagy in human MCF7 cells assessed as downregulation of p62; assay type: functional, cell-based
# MCF7 [8] = test: Induction of ROS-mediated autophagy in human MCF7 cells assessed as increase in LC3-2/LC3-1 ratio; assay type: functional, cell-based
# MCF7 [9] = test: Induction of mitochondria-mediated apoptosis in human MCF7 cells; assay type: functional, cell-based
# MCF7 [10] = test: Induction of apoptosis in human MCF7 cells assessed as activation of cleaved caspase-7; assay type: functional, cell-based
# MCF7 [11] = test: Induction of endoplasmic reticulum vacuolation in human MCF7 cells assessed as increase in vacuole formation at 5 to 20 uM measured after 24 hrs by ER-tracker and Hoechst 33342 staining based confocal microscopy; assay type: functional, cell-based
# MCF7 [12] = test: Induction of endoplasmic reticular stress in human MCF7 cells assessed as upregulation of IRE1a by Western blot analysis; assay type: functional, cell-based
# MCF7 [13] = test: Induction of apoptosis in human MCF7 cells assessed as activation of cleaved caspase-9; assay type: functional, cell-based
# MCF7 [14] = test: Induction of morphological changes in human MCF7 cells assessed as change in vacuole at 5 to 20 uM measured after 24 hrs by optical microscopy analysis; assay type: functional, cell-based
# MCF7 [15] = test: Induction of cell death in human MCF7 cells assessed as increase in ROS level measured after 24 hrs by DCFHDA probe based flow cytometry; assay type: functional
# MCF7 [16] = test: Induction of cell death in human MCF7 cells assessed as increase in intracellular calcium measured after 24 hrs by Fluo-4/AM probe based confocal microscopic analysis; assay type: functional
# MCF7 [17] = test: Induction of endoplasmic reticular stress in human MCF7 cells assessed as upregulation of XBP1s by Western blot analysis; assay type: functional, cell-based
# MCF7 [18] = test: Induction of apoptosis in human MCF7 cells assessed as activation of cleaved caspase-3; assay type: functional, cell-based
smiles,measurement,setting,value
C=C1CC[C@@H]2[C@](C)(CCC[C@@]2(C)C(=O)O)[C@H]1C/C=C(\C)[C@@H]1C[C@@H]2C[C@H]3C(C)(C)CCC[C@]3(C)c3ccc(O)c(c32)O1,Activity,MCF7 [1],Active
same,Activity,MCF-10A,Toxic
same,Activity,MCF7 [2],Active
same,IC50,HCT-116,7.5 µM
same,IC50,U2OS,8.4 µM
same,Activity,MCF7 [3],Active
same,Activity,MCF7 [4],Active
same,IC50,MCF7 [5],7.4 µM
same,Activity,MCF7 [6],Active
same,Activity,MCF7 [7],Active
same,Activity,MCF7 [8],Active
same,Activity,MCF7 [9],Active
same,Activity,MCF7 [10],Active
same,Activity,MCF7 [11],Active
same,Activity,MCF7 [12],Active
same,Activity,MCF7 [13],Active
same,Activity,MCF7 [14],Active
same,Activity,MCF7 [15],Dose-dependent effect
same,Activity,MCF7 [16],Dose-dependent effect
same,Activity,MCF7 [17],Active
same,Activity,MCF7 [18],Active
C=C1CC[C@@H]2[C@](C)(CCC[C@@]2(C)C(=O)O)[C@H]1C/C=C(\C)[C@H]1C[C@H]2C[C@H]3C(C)(C)CCC[C@]3(C)c3ccc(O)c(c32)O1,IC50,HCT-116,7.8 µM
same,IC50,U2OS,9.7 µM
same,IC50,MCF7 [5],9.9 µM
C=C1CC[C@@H]2[C@](C)(CCC[C@@]2(C)C(=O)OC)[C@H]1C/C=C(\C)[C@@H]1C[C@@H]2C[C@H]3C(C)(C)CCC[C@]3(C)c3ccc(O)c(c32)O1,IC50,HCT-116,> 50 µM
same,IC50,U2OS,> 50 µM
same,IC50,MCF7 [5],> 50 µM
